Data published in patent publication US20250145625A1, “PYRAZOLOPYRIMIDINE DERIVATIVE AND ANTICANCER PHARMACEUTICAL COMPOSITION CONTAINING SAME AS ACTIVE INGREDIENT” (KOREA RESEARCH INSTITUTE OF CHEMICAL TECHNOLOGY, priority 2021, published 2025).
pIC50: −log10 of the molar value.

How the values were obtained:
[1] = target: IR(h), activated (Homo sapiens (Human), UniProt P06213); assay: Kinase activity inhibitory ability (panel); format: biochemical; conditions: compound at 500 nM
[2] = target: ALK(h) (Homo sapiens (Human), UniProt Q9UM73); assay: Kinase activity inhibitory ability (panel); format: biochemical; conditions: compound at 500 nM
[3] = target: recombinant human TTK protein (Homo sapiens (Human), UniProt P33981); assay: Evaluation of TTK activity inhibitory ability (scintillation counting); format: biochemical;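 also: reaction stopped with 0.5% phosphoric acid, spotted on P30 filter, TTK activity counted by scintillation, uninhibited no-compound wells taken as 100% control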
recombinant human TTK protein, sequence (P33981 whole entry): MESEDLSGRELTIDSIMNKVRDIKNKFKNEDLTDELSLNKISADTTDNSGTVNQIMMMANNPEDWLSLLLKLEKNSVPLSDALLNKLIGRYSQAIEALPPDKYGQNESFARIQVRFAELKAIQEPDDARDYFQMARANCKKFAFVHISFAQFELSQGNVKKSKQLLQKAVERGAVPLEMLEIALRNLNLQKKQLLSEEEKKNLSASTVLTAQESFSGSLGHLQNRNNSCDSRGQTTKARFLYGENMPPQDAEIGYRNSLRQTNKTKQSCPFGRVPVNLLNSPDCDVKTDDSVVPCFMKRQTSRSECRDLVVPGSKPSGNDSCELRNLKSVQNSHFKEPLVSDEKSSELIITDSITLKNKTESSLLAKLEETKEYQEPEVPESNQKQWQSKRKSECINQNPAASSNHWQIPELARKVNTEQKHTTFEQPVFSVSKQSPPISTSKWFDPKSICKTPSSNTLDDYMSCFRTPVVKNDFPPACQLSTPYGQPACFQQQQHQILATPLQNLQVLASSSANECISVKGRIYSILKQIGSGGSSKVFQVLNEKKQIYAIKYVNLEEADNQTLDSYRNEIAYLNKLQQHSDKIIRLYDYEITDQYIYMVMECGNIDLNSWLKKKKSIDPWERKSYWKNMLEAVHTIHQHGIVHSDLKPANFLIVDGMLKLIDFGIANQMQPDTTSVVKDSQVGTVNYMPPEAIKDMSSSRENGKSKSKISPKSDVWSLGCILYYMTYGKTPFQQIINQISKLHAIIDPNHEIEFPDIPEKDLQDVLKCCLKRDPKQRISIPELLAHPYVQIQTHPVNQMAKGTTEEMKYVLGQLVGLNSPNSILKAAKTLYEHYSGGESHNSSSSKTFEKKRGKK
Description: To determine the ability of a compound represented by Chemical Formula 1 according to the present invention to inhibit TTK activity, the following experiment was conducted.
After that, the reaction was terminated by adding phosphoric acid to a concentration of 0.5%, and 10 of the reaction solution was dropped onto a P30 filter. […] The activity of TTK was measured through scintillation counting. The activity value from the group with no compound was set as 100% of control, and the degree of TTK inhibition by the compound was calculated.

[4] = target: LTK(h) (Homo sapiens (Human), UniProt P29376); assay: Kinase activity inhibitory ability (panel); format: biochemical; conditions: compound at 500 nM
LTK(h), sequence (P29376 17-864): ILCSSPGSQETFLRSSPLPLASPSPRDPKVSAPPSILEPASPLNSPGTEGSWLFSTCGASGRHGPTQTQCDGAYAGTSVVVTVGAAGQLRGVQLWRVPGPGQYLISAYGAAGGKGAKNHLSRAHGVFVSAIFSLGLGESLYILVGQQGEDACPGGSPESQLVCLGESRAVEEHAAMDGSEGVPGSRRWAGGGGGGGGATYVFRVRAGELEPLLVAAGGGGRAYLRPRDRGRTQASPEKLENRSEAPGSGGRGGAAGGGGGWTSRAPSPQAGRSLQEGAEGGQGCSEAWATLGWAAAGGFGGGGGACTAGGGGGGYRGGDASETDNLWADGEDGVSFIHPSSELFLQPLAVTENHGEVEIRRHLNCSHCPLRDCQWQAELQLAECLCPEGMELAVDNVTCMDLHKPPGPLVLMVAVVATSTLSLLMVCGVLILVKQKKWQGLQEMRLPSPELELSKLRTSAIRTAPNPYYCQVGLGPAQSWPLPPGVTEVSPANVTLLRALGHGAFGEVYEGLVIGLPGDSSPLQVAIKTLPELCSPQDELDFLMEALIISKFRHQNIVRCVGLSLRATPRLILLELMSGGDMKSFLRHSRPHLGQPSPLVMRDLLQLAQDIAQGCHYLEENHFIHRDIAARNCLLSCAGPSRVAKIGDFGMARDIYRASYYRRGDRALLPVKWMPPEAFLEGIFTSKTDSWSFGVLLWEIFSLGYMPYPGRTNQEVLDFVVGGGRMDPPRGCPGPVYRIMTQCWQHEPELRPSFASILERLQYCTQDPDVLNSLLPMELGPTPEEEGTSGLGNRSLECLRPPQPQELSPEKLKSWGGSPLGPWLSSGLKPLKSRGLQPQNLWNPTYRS

[5] = test system: MDA-MB-231 triple negative breast cancer cell line; assay: Cytotoxicity in TTK-expressed MDA-MB-231 cells; format: cell-based; conditions: Homo sapiens, MDA-MB-231, 120 h, 5 days
Description: To determine the cytotoxicity of a compound represented by Chemical Formula 1 according to the present invention to MDA-MB-231 cells, the following test was conducted.
MDA-MB-231 triple negative breast cancer cell line purchased from ATCC was inoculated into each well of a 96-well plate at a volume of 90 μL containing 2,000 cells. Thereafter, an example compound of the present invention was added to respective wells at concentrations of 10 μM, 3 μM, 1 μM, 0.3 μM, 0.1 μM, and 0 μM, and the cells were cultured in a cell incubator at 37° C. for 5 days. Five days later, 10 μL of Cyto X solution (manufacturer: LPS Solution) was added to each of the wells, and the absorbance was measured at 450 nm using an Epoch microplate spectrophotometer (manufacturer: BioTek Instruments Inc.) according to the product's user guide. For cytotoxicity, the IC50 value for cytotoxicity of each compound was calculated by quantifying the number of cells using the measured value.

[6] = target: TTK(h) (Homo sapiens (Human), UniProt P33981); assay: Kinase activity inhibitory ability (panel); format: biochemical
TTK(h), sequence (P33981 whole entry): as the sequence (P33981 whole entry) above

[7] = test system: HCT116 colon cancer cell line; assay: Cytotoxicity in TTK-expressed HCT116 cells; format: cell-based; conditions: Homo sapiens, HCT-116, 120 h, 5 days
Description: To determine the cytotoxicity of a compound represented by Chemical Formula 1 according to the present invention to HCT116 cells, the following test was conducted.
HCT116 colon cancer cell line purchased from ATCC was inoculated into each well of a 96-well plate at a volume of 90 μL containing 2,000 cells. Thereafter, an example compound of the present invention was added to respective wells at concentrations of […], 3 μM, 1 μM, 0.3 μM, 0.1 μM, and 0 μM, and the cells were cultured in a cell incubator at 37° C. for 5 days. After 5 days, the number of cells was measured by CCK8 test method, and the cytotoxicity was determined by calculating the IC50 value for cytotoxicity of each compound.

[8] = target: IRR(h) (Homo sapiens (Human), UniProt P14616); assay: Kinase activity inhibitory ability (panel); format: biochemical; conditions: compound at 500 nM
IRR(h), sequence (P14616 27-1297): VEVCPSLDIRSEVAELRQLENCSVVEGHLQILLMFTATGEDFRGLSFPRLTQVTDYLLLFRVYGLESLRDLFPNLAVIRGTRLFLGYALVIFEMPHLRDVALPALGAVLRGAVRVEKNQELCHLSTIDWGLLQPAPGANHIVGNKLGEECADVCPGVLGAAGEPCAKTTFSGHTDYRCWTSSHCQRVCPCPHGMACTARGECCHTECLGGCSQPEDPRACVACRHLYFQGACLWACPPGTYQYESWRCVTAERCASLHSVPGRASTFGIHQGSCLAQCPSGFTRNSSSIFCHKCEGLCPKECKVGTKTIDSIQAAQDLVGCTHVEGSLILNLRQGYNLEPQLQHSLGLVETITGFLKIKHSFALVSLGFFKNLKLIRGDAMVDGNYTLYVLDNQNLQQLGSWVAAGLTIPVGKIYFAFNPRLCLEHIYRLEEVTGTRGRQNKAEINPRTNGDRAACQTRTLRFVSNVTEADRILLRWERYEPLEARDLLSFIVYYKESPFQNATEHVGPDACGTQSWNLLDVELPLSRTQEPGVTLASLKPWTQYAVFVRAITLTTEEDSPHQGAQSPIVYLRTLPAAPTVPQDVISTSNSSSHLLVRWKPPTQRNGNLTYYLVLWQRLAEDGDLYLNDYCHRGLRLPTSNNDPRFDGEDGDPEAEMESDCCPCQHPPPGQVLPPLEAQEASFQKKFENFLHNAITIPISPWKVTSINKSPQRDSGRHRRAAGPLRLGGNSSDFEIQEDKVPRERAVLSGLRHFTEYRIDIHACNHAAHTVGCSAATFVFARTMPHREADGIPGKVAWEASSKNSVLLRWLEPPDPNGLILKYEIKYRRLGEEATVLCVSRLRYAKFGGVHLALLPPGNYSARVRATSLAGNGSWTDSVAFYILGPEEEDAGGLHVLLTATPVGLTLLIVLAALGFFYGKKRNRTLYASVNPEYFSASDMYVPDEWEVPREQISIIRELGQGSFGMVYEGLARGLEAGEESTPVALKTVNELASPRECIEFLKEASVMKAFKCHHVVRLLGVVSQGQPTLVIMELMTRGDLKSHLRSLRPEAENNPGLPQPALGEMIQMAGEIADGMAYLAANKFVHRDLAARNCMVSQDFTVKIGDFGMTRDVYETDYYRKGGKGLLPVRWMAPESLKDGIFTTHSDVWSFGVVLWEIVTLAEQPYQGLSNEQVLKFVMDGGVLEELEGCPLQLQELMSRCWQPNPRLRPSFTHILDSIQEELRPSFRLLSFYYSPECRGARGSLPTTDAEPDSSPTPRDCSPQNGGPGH

[9] = test system: MDA-MB-231 tumor in nude mice; assay: Drug efficacy on nude mice employing MDA-MB-231; format: in vivo; conditions: MDA-MB-231, oral 6 mg/kg daily for 4 weeks
Description: 5-Week-old female nude mice were subcutaneously injected with 5×10^6 MDA-MB-231 cells into the flank. When the tumor volume reached approximately 50 mm^3, the mice were divided into groups, each containing 5 animals, which were than orally administered a drug. The dosage of the drug was 6 mg/kg and administered daily for 4 weeks.

[10] = test system: MDA-MB-231 triple negative breast cancer cell line; assay: Cell cycle distribution of co-treatment with paclitaxel in MDA-MB-231 cells; format: cell-based; conditions: co-treated with 0.001 μM paclitaxel
Description: To determine the change in cell cycle distribution when a compound represented by Chemical Formula 1 according to the present invention and paclitaxel were co-applied to MDA-MB-231 cells, the following test was conducted.
MDA-MB-231 triple negative breast cancer cell line purchased from ATCC was inoculated into each well of a 6-well plate at 100,000 cells. Thereafter, paclitaxel was added at concentrations of 0 μM and 0.001 μM and an example compound of the present invention was added at concentrations of 0 μM, 0.03 μM, or 0.1 μM, and the cells were cultured in a cell incubator at 37° C. for 2 days. After 2 days, the cells were fixed with 70% ethanol, and added and into 200 μL of Muse Cell Cycle reagent in a light-shielded state and cultured for 30 minutes. Then, the cell cycle distribution was analyzed using a Muse Cell Analyzer (manufacturer: Merck, Millipore), and the results are shown in FIG. 6.

IR(h), activated, sequence (P06213 28-1382): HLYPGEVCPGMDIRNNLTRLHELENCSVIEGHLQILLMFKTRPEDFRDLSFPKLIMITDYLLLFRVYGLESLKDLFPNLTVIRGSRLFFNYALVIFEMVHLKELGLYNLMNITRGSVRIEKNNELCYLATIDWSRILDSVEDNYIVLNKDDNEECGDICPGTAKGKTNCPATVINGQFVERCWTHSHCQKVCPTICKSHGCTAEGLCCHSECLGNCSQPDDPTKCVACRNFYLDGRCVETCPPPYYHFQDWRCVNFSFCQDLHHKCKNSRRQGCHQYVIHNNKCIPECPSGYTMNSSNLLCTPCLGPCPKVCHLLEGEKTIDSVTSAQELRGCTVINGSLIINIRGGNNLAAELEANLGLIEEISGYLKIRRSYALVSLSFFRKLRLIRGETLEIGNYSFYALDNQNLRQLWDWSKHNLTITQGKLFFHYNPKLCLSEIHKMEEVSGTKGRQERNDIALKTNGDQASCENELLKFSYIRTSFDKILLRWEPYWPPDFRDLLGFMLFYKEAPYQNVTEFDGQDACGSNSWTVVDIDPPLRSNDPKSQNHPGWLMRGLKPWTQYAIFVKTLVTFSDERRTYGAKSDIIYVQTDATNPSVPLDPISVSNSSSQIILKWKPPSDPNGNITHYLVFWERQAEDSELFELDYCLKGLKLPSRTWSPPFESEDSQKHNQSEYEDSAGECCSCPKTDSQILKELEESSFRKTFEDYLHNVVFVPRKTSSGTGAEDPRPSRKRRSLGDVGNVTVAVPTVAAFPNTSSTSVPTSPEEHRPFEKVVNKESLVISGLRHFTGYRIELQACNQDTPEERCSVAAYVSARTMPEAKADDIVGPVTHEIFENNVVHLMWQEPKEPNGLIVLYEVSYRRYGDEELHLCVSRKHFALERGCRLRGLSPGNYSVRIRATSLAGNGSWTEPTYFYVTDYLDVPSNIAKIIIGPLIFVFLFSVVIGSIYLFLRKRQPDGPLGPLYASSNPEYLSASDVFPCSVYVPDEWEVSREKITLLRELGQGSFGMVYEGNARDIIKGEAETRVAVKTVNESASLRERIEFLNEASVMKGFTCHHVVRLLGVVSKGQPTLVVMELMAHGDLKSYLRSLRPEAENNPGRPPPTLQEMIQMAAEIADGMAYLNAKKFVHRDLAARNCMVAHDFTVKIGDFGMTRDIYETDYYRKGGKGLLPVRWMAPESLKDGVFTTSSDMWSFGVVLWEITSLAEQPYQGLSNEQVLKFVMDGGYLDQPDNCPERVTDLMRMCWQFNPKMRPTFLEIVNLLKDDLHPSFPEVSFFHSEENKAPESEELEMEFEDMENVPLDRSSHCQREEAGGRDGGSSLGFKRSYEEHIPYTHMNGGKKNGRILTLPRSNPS

SMILES	activity at 0.5 µM [1]	inhibition at 0.5 µM [1]	activity at 0.5 µM [2]	inhibition at 0.5 µM [2]	pIC50 [3]	activity at 0.5 µM [4]	inhibition at 0.5 µM [4]	IC50 [5]	TTK activity inhibition (in words) ([6]; 500 nM)	activity at 0.5 µM ([6]; TTK(h), compound at 500 nM)	inhibition at 0.5 µM ([6]; TTK(h), compound at 500 nM)	IC50 [7]	activity at 0.5 µM [8]	inhibition at 0.5 µM [8]	tumor volume over time [9]	change in cell distribution on co-treatment [10]
COc1ccc(Cn2nc(-c3cn[nH]c3)c3c(NC4CCCCC4)nc(Nc4ccc(N5CCOCC5)cc4OC)nc32)cc1 [Compound 8-8, N^4-cyclohexyl-N^6-(2-methoxy-4-morpholinophenyl)-1-(4-methoxybenzyl)-3-(1H-pyrazol-4-yl)-1H-pyrazolo[3,4-d]pyrimidine-4,6-diamine]	8%	> 90%	2%	> 90%	7.00 to 7.52	2%	> 90%	< 150 nM	completely inhibited TTK activity	-7%	> 90%	< 150 nM	7%	> 90%		
Cc1cc(-c2cnn3c(NC[C@H]4C[C@@](C)(O)C4)cc(Oc4cccnc4)nc23)ccc1C(=O)NC1CC1 [Comparative Example 1, CFI-402257, reference compound]								< 150 nM				< 150 nM			reduced	enhanced changes in cell distribution
